Legend:
[1] = test system: male and female Drosophila suzukii antennae; test: Electroantennogram (EAG) assay; conditions: for strength of EAG response compared among treatments: 0.001-10 mg doses; for antennal (EAG) response: 0.001-10 mg doses in hexane, N=10
Method: Electroantennogram (EAG) assays were conducted to determine the antennal response of sexually mature male and female D. suzukii to ethyl butanoate, ethyl (E)-but-2-enoate, and 2-pentylfuran. The antennal responses of male and female D. suzukii to each compound were tested at five doses (0.001 mg, 0.01 mg, 0.1 mg, 1 mg, and 10 mg) diluted in hexane. The stimulus cartridge preparations, antennal preparations, and EAG apparatus used were similar to those previously described in the literature. Stimulus applicators consisted of a 14.5-cm-long glass Pasteur pipette containing 20 μL of each volatile dose (or hexane control) pipetted onto a 6×0.5-cm strip of filter paper. The applicators containing the impregnated filter paper were placed under the fume hood for 2 min to allow the hexane to evaporate. For the recording and base electrodes, a silver wire was inserted into a drawn capillary tube filled with phosphate-buffered saline (NaCl, 4 g; NA2HPO4, 0.57 g; KH2PO4, 0.1 g; KCl, 0.1 g in 500 ml distilled water). To attach the base electrode to the fly, the fly's abdomen was removed, and the sharp tip of the saline-filled capillary tube was pulled directly into the thoracic cavity. Once the fly preparation was mounted, the recording electrode was carefully moved toward the antenna using a micromanipulator until the antenna touched the pool of saline solution on the recording electrode. Antennal preparations were exposed to a constant stream of charcoal-filtered and humidified air at a rate of 1.5 l/min.
The EAG apparatus consisted of an IDAC-02 interface board for data acquisition and used Syntech software (Syntech Ltd., Hilversum, The Netherlands) for recording, storing, and quantifying EAG responses. Antennal preparations were primed with 1 mg of acetoin, a known attractant and antennally active compound, to ensure that the antennae were prepared correctly and responsive (positive control). Then, the antennae were exposed to a hexane control, followed by exposure to increasing doses of one of the volatiles. Each antenna was exposed to four rounds of each dose of a single compound before being discarded. Six antennae were tested daily: three from males and three from females. Test and control compounds were applied at 10 second(s) intervals at a pulse rate of 0.5 s, with a 1-min interval between each stimulus. Maximum amplitudes of depolarizations were measured (in millivolts) for each compound with the response from the hexane-only controls subtracted from the other doses to normalize the antennal response. In total, each dose of each compound was replicated 10 times for each sex.
To analyze the effect of dose of the three repellents on D. suzukii antennal responses, a generalized linear model (GLM) was used with a Poisson distribution and a log link function in SPSS Statistics 23.0 (IBM Corp, Armonk, NY, USA). The model included ‘Treatment’ (ethyl butanoate, ethyl (E)-but-2-enoate, and 2-pentylfuran), ‘Dose’, ‘Sex’, and their interactions as independent variables. This analysis, when significant, was followed by post hoc Bonferroni tests (α=0.05) to determine individual differences among groups. Prior to analysis, EAG data were normalized relative to the response to the hexane control.

[2] = Emission rate from polyethylene sachets, semi-field cages; type: physicochemical; conditions: sachet with 2.5 mL, 24 h
Method: On the day of testing, two bushes were placed in each cage (FIG. 6B). Each bush in the tent was surrounded by a metal tomato cage. The bagged blueberry fruit clusters in the field were clipped and brought inside the cages. Clusters of 10 berries were created and placed in water picks. Five berry clusters were distributed randomly and evenly on each tomato cage at different heights using green twist ties (FIG. 6B). The sachets used for the treatments were prepared according to the methods described by Gale et al. (2024). They were constructed from 8 cm strips of polyethylene tubing (5.1 cm width, 2 MIL thickness; ULINE, Pleasant Prairie, WI, USA) and polyester felt (Grainger, Lake Forest, IL, USA). One end of the polyethylene tubing was sealed with an impulse sealer. A 5 cm strip of felt was placed inside the sachet's open end, and a 2.5 mL aliquot of each treatment was pipetted onto the felt. The open end was then sealed shut with the impulse sealer, entirely sealing the saturated felt. A hole was punched at the top of each sachet, away from the treatment area to avoid damaging the sealed section, and green twist ties were used to hang the sachets in the center of a bush (FIG. 6B). Before loading the sachets, the weights of the empty sachets were taken. The sachets were weighed again directly after loading with the compounds and then a final time after the 24-hour test period to measure the emission rates of each volatile. Finally, the emission rates of compounds in the semi-field and field cage studies were calculated by subtracting the final weight of the sachets from the initial weight and dividing by the time interval (24 h or 3 days). These rates were then compared across repellent treatments using ANOVA, with Tukey pairwise comparisons conducted when significant differences were found.

[3] = Emission rate from polyethylene sachets, field cages; type: physicochemical; conditions: field cage; sachets weighed before and 3 days after deployment
Text: Twenty-four hours after deploying the sachets, 120 flies (approximately 60 males and 60 females) were released into each cage at 18:00 hrs (N=120 flies×4 treatments×4 replicates=1,920 total flies). To ensure even distribution within the cages, 30 flies were released at four equidistant points between the bushes. A pre-sampling of the berries, conducted before the flies were released, confirmed the absence of any infestation. Berries were then collected 1-, 2-, and 3-days post-treatment. From every other bush (starting at the focal bush) in the cage, 50 berries from the top half and 50 from the bottom half were collected into two separate 236.6 mL deli containers lined with two cotton pads. From each berry sample, a random subsample of 10 berries were examined and egg counts recorded before being returned to the original container. The blueberries were incubated on a light bench in the laboratory for up to two weeks, as previously described, and adult emergence was recorded. The sachets were weighed before deployment and 3 days after deployment to measure the emission rates of each compound. Finally, the emission rates of compounds in the semi-field and field cage studies were calculated by subtracting the final weight of the sachets from the initial weight and dividing by the time interval (24 h or 3 days). These rates were then compared across repellent treatments using ANOVA, with Tukey pairwise comparisons conducted when significant differences were found.

## C/C=C/C(=O)OCC [ethyl (E)-but-2-enoate]
[1]
  strength of EAG response compared among treatments: stronger antennal responses than 2-pentylfuran
  antennal (EAG) response: dose-dependent antennal responses
[2]
  mean emission rate (±SE): 54.9 ± 8.9 mg/h
[3]
  emission rate (mean±SE): 679.23 ± 17.73 mg/day

## CCCCCc1ccco1 [2-pentylfuran, reference compound]
[1]
  antennal (EAG) response: dose-dependent antennal responses
[2]
  mean emission rate (±SE): 82.3 ± 7.6 mg/h
[3]
  emission rate (mean±SE): 559.73 ± 23.54 mg/day

## CCCC(=O)OCC [ethyl butanoate]
[1]
  strength of EAG response compared among treatments: stronger antennal responses than 2-pentylfuran
  antennal (EAG) response: dose-dependent antennal responses
[2]
  mean emission rate (±SE): 70.4 ± 14.2 mg/h
[3]
  emission rate (mean±SE): 697.97 ± 7.96 mg/day
